The supplement of paper PMC11451515

What was measured:
Conditions in all cases: 48 h
NOMO1 [1] = assay: cell viability relative to DMSO control; higher = less cytotoxic
Method in brief: (§1)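 Viability is expressed as a percentage of DMSO wells within each plate, and cell-free wells serve as background. Seeding densities in the 1536-well plates (5 μl) were 500 cells/well for NOMO1 or SEM leukemia cells and 1000 cells/well for P12-Ichikawa. Each line was adapted for at least four passages in each medium. Library compounds in DMSO were pin-dosed at 47 μM to 0.79 nM (11 points, threefold), and CellTiter-Glo One luminescence was read after 48 h at 37°C.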

P12-Ichikawa [2] = assay: as above
Method in brief: as §1

SEM cells [3] = assay: as above
Method in brief: as §1

NOMO1 [4] = assay: AUC of viability dose-response curve (% viability x log10 dose units); higher = less sensitive
Method in brief: (§2)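 Area under the curve was integrated by trapezoidal rule from a log-logistic fit of normalised viability, with curves exceeding full viability scaled and quality-control failures removed. The fit had four parameters over log10 doses. Viability came from CellTiter-Glo One luminescence, normalised per plate to DMSO and cell-free wells, after leukemia cells adapted to each medium (500 or 1000 cells/well, 1536-well plates) were exposed to library compounds in DMSO for 48 h at 37°C. The 11 threefold doses ran from 47 μM to 0.79 nM.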

P12-Ichikawa [5] = assay: as above
Method in brief: as §2

SEM cells [6] = assay: as above
Method in brief: as §2

COc1cc(N2CCN(C)CC2)ccc1Nc1nc(N)c(C(=O)c2c(Cl)cccc2Cl)s1
cell viability [%]
Conditions	NOMO1 [1]	P12-Ichikawa [2]	SEM cells [3]
HPLM + 10% dialyzed FBS, 0.000781 µM	117	111	109
HPLM + 10% dialyzed FBS, 0.00234 µM	105	118	118
HPLM + 10% dialyzed FBS, 0.00702 µM	119	106	124
HPLM + 10% dialyzed FBS, 0.0211 µM	105	113	111
HPLM + 10% dialyzed FBS, 0.0632 µM	110	111	108
HPLM + 10% dialyzed FBS, 0.19 µM	116	108	116
HPLM + 10% dialyzed FBS, 0.569 µM	126	112	111
HPLM + 10% dialyzed FBS, 1.71 µM	128	103	93.7
HPLM + 10% dialyzed FBS, 5.12 µM	107	105	88.9
HPLM + 10% dialyzed FBS, 15.4 µM	89	96.2	78.4
HPLM + 10% dialyzed FBS, 46.1 µM	82.7	50.2	24.5
RPMI 5 mM glucose + 10% FBS, 0.000781 µM	107	119	118
RPMI 5 mM glucose + 10% FBS, 0.00234 µM	117	117	121
RPMI 5 mM glucose + 10% FBS, 0.00702 µM	103	125	117
RPMI 5 mM glucose + 10% FBS, 0.0211 µM	98.7	110	108
RPMI 5 mM glucose + 10% FBS, 0.0632 µM	103	114	101
RPMI 5 mM glucose + 10% FBS, 0.19 µM	118	111	109
RPMI 5 mM glucose + 10% FBS, 0.569 µM	102	115	105
RPMI 5 mM glucose + 10% FBS, 1.71 µM	105	105	110
RPMI 5 mM glucose + 10% FBS, 5.12 µM	104	101	85.7
RPMI 5 mM glucose + 10% FBS, 15.4 µM	98.6	99.5	68.4
RPMI 5 mM glucose + 10% FBS, 46.1 µM	87.3	50.5	3.88
RPMI 5 mM glucose + 10% dialyzed FBS, 0.000781 µM	108	120	112
RPMI 5 mM glucose + 10% dialyzed FBS, 0.00234 µM	107	120	105
RPMI 5 mM glucose + 10% dialyzed FBS, 0.00702 µM	108	131	122
RPMI 5 mM glucose + 10% dialyzed FBS, 0.0211 µM	116	117	116
RPMI 5 mM glucose + 10% dialyzed FBS, 0.0632 µM	96.6	112	116
RPMI 5 mM glucose + 10% dialyzed FBS, 0.19 µM	114	117	114
RPMI 5 mM glucose + 10% dialyzed FBS, 0.569 µM	103	119	110
RPMI 5 mM glucose + 10% dialyzed FBS, 1.71 µM	109	114	106
RPMI 5 mM glucose + 10% dialyzed FBS, 5.12 µM	102	115	122
RPMI 5 mM glucose + 10% dialyzed FBS, 15.4 µM	105	101	85.7
RPMI 5 mM glucose + 10% dialyzed FBS, 46.1 µM	89.7	54.3	13.3

AUC of viability dose-response curve
Conditions	NOMO1 [4]	P12-Ichikawa [5]	SEM cells [6]
HPLM + 10% dialyzed FBS	456	457	425
RPMI 5 mM glucose + 10% FBS	467	454	422
RPMI 5 mM glucose + 10% dialyzed FBS	467	456	444

CCC(=O)N1CCN(CC1)C2=C(C=C(C=C2)N3C(=O)\C=C/C4=C3C5=CC(=CC=C5N=C4)C6=CN=C7C=CC=CC7=C6)C(F)(F)F
cell viability [%]
Conditions	NOMO1 [1]	P12-Ichikawa [2]	SEM cells [3]
HPLM + 10% dialyzed FBS, 0.000781 µM	93.9	89	77.6
HPLM + 10% dialyzed FBS, 0.00234 µM	94.4	102	88.7
HPLM + 10% dialyzed FBS, 0.00702 µM	89.2	99.2	85.9
HPLM + 10% dialyzed FBS, 0.0211 µM	90.8	97.1	73.8
HPLM + 10% dialyzed FBS, 0.0632 µM	83.2	82.9	57.8
HPLM + 10% dialyzed FBS, 0.19 µM	75	85.3	67.8
HPLM + 10% dialyzed FBS, 0.569 µM	61.4	81.8	46.9
HPLM + 10% dialyzed FBS, 1.71 µM	71.8	77.3	48.7
HPLM + 10% dialyzed FBS, 5.12 µM	72.7	73.8	47.5
HPLM + 10% dialyzed FBS, 15.4 µM	69.2	70.9	34.4
HPLM + 10% dialyzed FBS, 46.1 µM	67	77	29
RPMI 5 mM glucose + 10% FBS, 0.000781 µM	98	84.7	97
RPMI 5 mM glucose + 10% FBS, 0.00234 µM	96.7	90.8	102
RPMI 5 mM glucose + 10% FBS, 0.00702 µM	96.9	84	90.1
RPMI 5 mM glucose + 10% FBS, 0.0211 µM	104	75.5	80.6
RPMI 5 mM glucose + 10% FBS, 0.0632 µM	90.4	68	56.7
RPMI 5 mM glucose + 10% FBS, 0.19 µM	79	65.3	59.7
RPMI 5 mM glucose + 10% FBS, 0.569 µM	72.7	62.9	48
RPMI 5 mM glucose + 10% FBS, 1.71 µM	68.2	61.3	45
RPMI 5 mM glucose + 10% FBS, 5.12 µM	62.3	59.6	45
RPMI 5 mM glucose + 10% FBS, 15.4 µM	64	56.5	47.9
RPMI 5 mM glucose + 10% FBS, 46.1 µM	63.7	49.8	30.9
RPMI 5 mM glucose + 10% dialyzed FBS, 0.000781 µM	77.6	86.4	83.4
RPMI 5 mM glucose + 10% dialyzed FBS, 0.00234 µM	100	98.3	92.6
RPMI 5 mM glucose + 10% dialyzed FBS, 0.00702 µM	86.3	97.6	91.5
RPMI 5 mM glucose + 10% dialyzed FBS, 0.0211 µM	86.5	80.5	84.1
RPMI 5 mM glucose + 10% dialyzed FBS, 0.0632 µM	82.5	77.2	61.2
RPMI 5 mM glucose + 10% dialyzed FBS, 0.19 µM	77.6	71.2	62.7
RPMI 5 mM glucose + 10% dialyzed FBS, 0.569 µM	68.3	68.4	46
RPMI 5 mM glucose + 10% dialyzed FBS, 1.71 µM	60.8	57.7	54.7
RPMI 5 mM glucose + 10% dialyzed FBS, 5.12 µM	57.6	60.8	42.5
RPMI 5 mM glucose + 10% dialyzed FBS, 15.4 µM	57.4	48.3	42.8
RPMI 5 mM glucose + 10% dialyzed FBS, 46.1 µM	54.7	54.4	33.1

AUC of viability dose-response curve
Conditions	NOMO1 [4]	P12-Ichikawa [5]	SEM cells [6]
HPLM + 10% dialyzed FBS	376	406	286
RPMI 5 mM glucose + 10% FBS	388	328	297
RPMI 5 mM glucose + 10% dialyzed FBS	352	347	300

CCOc1ccccc1N/N=C1/C(=O)N(c2nc(-c3ccccc3)cs2)N=C1C
cell viability [%]
Conditions	NOMO1 [1]	P12-Ichikawa [2]	SEM cells [3]
HPLM + 10% dialyzed FBS, 0.000781 µM	118	111	124
HPLM + 10% dialyzed FBS, 0.00234 µM	122	114	114
HPLM + 10% dialyzed FBS, 0.00702 µM	119	114	93
HPLM + 10% dialyzed FBS, 0.0211 µM	123	115	122
HPLM + 10% dialyzed FBS, 0.0632 µM	113	114	105
HPLM + 10% dialyzed FBS, 0.19 µM	117	108	99.2
HPLM + 10% dialyzed FBS, 0.569 µM	115	104	100
HPLM + 10% dialyzed FBS, 1.71 µM	108	101	86.4
HPLM + 10% dialyzed FBS, 5.12 µM	103	103	45.9
HPLM + 10% dialyzed FBS, 15.4 µM	57.5	86.4	8.56
HPLM + 10% dialyzed FBS, 46.1 µM	32.1	67	3.58
RPMI 5 mM glucose + 10% FBS, 0.000781 µM	109	115	103
RPMI 5 mM glucose + 10% FBS, 0.00234 µM	103	108	114
RPMI 5 mM glucose + 10% FBS, 0.00702 µM	104	108	102
RPMI 5 mM glucose + 10% FBS, 0.0211 µM	114	121	116
RPMI 5 mM glucose + 10% FBS, 0.0632 µM	97.3	116	144
RPMI 5 mM glucose + 10% FBS, 0.19 µM	109	120	110
RPMI 5 mM glucose + 10% FBS, 0.569 µM	101	112	111
RPMI 5 mM glucose + 10% FBS, 1.71 µM	97.3	106	70.7
RPMI 5 mM glucose + 10% FBS, 5.12 µM	97.8	114	70
RPMI 5 mM glucose + 10% FBS, 15.4 µM	77.1	98.9	9.65
RPMI 5 mM glucose + 10% FBS, 46.1 µM	56.1	97	2.74
RPMI 5 mM glucose + 10% dialyzed FBS, 0.000781 µM	109	113	114
RPMI 5 mM glucose + 10% dialyzed FBS, 0.00234 µM	106	118	106
RPMI 5 mM glucose + 10% dialyzed FBS, 0.00702 µM	103	110	101
RPMI 5 mM glucose + 10% dialyzed FBS, 0.0211 µM	122	116	115
RPMI 5 mM glucose + 10% dialyzed FBS, 0.0632 µM	118	113	106
RPMI 5 mM glucose + 10% dialyzed FBS, 0.19 µM	102	108	97.4
RPMI 5 mM glucose + 10% dialyzed FBS, 0.569 µM	104	109	81.7
RPMI 5 mM glucose + 10% dialyzed FBS, 1.71 µM	90.5	105	77.1
RPMI 5 mM glucose + 10% dialyzed FBS, 5.12 µM	90	106	59.4
RPMI 5 mM glucose + 10% dialyzed FBS, 15.4 µM	59.8	94.6	9.71
RPMI 5 mM glucose + 10% dialyzed FBS, 46.1 µM	39.7	94.6	3.01

AUC of viability dose-response curve
Conditions	NOMO1 [4]	P12-Ichikawa [5]	SEM cells [6]
HPLM + 10% dialyzed FBS	428	444	368
RPMI 5 mM glucose + 10% FBS	447	467	371
RPMI 5 mM glucose + 10% dialyzed FBS	419	450	358
